Laboratory results reported in the NIST ThermoML archive (doi:10.1016/j.jct.2011.01.016).
± gives the expanded uncertainty stated by the source.

Test: xn = mol fraction of the nth substance listed
Settings: 100 kPa, Liquid; for viscosity: Concentric cylinders viscometry; for mass density: Vibrating tube method

CCCCCCCCCCCCCC[P+](CCCCCC)(CCCCCC)CCCCCC.[Br-] [tetradecyltrihexylphosphonium bromide] + O
viscosity (298.15 K, x2 = 0.68): 238.84 ± 5.1 mPa·s
mass density (298.15 K, x2 = 0.68): 957 ± 5.8 kg/m3
viscosity (303.15 K, x2 = 0.68): 180.54 ± 3.2 mPa·s
mass density (303.15 K, x2 = 0.68): 953.6 ± 5.8 kg/m3
viscosity (308.15 K, x2 = 0.68): 138.77 ± 2.1 mPa·s
mass density (308.15 K, x2 = 0.68): 950.3 ± 5.8 kg/m3
viscosity (313.15 K, x2 = 0.68): 108.27 ± 1.3 mPa·s
mass density (313.15 K, x2 = 0.68): 946.9 ± 5.8 kg/m3
viscosity (318.15 K, x2 = 0.68): 85.71 ± 0.86 mPa·s
mass density (318.15 K, x2 = 0.68): 943.6 ± 5.8 kg/m3
viscosity (323.15 K, x2 = 0.68): 68.71 ± 0.58 mPa·s
mass density (323.15 K, x2 = 0.68): 940.2 ± 5.7 kg/m3
viscosity (328.15 K, x2 = 0.68): 55.74 ± 0.42 mPa·s
mass density (328.15 K, x2 = 0.68): 936.9 ± 5.7 kg/m3
viscosity (333.15 K, x2 = 0.68): 45.71 ± 0.36 mPa·s
mass density (333.15 K, x2 = 0.68): 933.5 ± 5.7 kg/m3
viscosity (338.15 K, x2 = 0.68): 37.91 ± 0.3 mPa·s
mass density (338.15 K, x2 = 0.68): 930.2 ± 5.7 kg/m3
viscosity (343.15 K, x2 = 0.68): 31.74 ± 0.25 mPa·s
mass density (343.15 K, x2 = 0.68): 926.8 ± 5.7 kg/m3
viscosity (348.15 K, x2 = 0.68): 26.82 ± 0.21 mPa·s
mass density (348.15 K, x2 = 0.68): 923.5 ± 5.6 kg/m3
viscosity (353.15 K, x2 = 0.68): 22.85 ± 0.18 mPa·s
mass density (353.15 K, x2 = 0.68): 920.1 ± 5.6 kg/m3
viscosity (358.15 K, x2 = 0.68): 19.62 ± 0.16 mPa·s
mass density (358.15 K, x2 = 0.68): 916.7 ± 5.6 kg/m3
viscosity (363.15 K, x2 = 0.68): 16.94 ± 0.14 mPa·s
mass density (363.15 K, x2 = 0.68): 913.4 ± 5.6 kg/m3

CCCCCCCCCCCCCC[P+](CCCCCC)(CCCCCC)CCCCCC.N#C[N-]C#N [tetradecyl(trihexyl)phosphonium dicyanamide] + O
viscosity (298.15 K, x2 = 0.496): 190.83 ± 3.5 mPa·s
mass density (298.15 K, x2 = 0.496): 900.7 ± 2.2 kg/m3
viscosity (303.15 K, x2 = 0.496): 145.77 ± 2.2 mPa·s
mass density (303.15 K, x2 = 0.496): 897.6 ± 2.2 kg/m3
viscosity (308.15 K, x2 = 0.496): 113.3 ± 1.5 mPa·s
mass density (308.15 K, x2 = 0.496): 894.7 ± 2.2 kg/m3
viscosity (313.15 K, x2 = 0.496): 89.4 ± 0.95 mPa·s
mass density (313.15 K, x2 = 0.496): 891.7 ± 2.2 kg/m3
viscosity (318.15 K, x2 = 0.496): 71.54 ± 0.64 mPa·s
mass density (318.15 K, x2 = 0.496): 888.7 ± 2.2 kg/m3
viscosity (323.15 K, x2 = 0.496): 57.96 ± 0.46 mPa·s
mass density (323.15 K, x2 = 0.496): 885.7 ± 2.2 kg/m3
viscosity (328.15 K, x2 = 0.496): 47.54 ± 0.39 mPa·s
mass density (328.15 K, x2 = 0.496): 882.7 ± 2.2 kg/m3
viscosity (333.15 K, x2 = 0.496): 39.43 ± 0.32 mPa·s
mass density (333.15 K, x2 = 0.496): 879.8 ± 2.2 kg/m3
viscosity (338.15 K, x2 = 0.496): 33.03 ± 0.27 mPa·s
mass density (338.15 K, x2 = 0.496): 876.8 ± 2.2 kg/m3
viscosity (343.15 K, x2 = 0.496): 27.94 ± 0.23 mPa·s
mass density (343.15 K, x2 = 0.496): 873.8 ± 2.2 kg/m3
viscosity (348.15 K, x2 = 0.496): 23.84 ± 0.2 mPa·s
mass density (348.15 K, x2 = 0.496): 870.9 ± 2.2 kg/m3
viscosity (353.15 K, x2 = 0.496): 20.52 ± 0.17 mPa·s
mass density (353.15 K, x2 = 0.496): 867.9 ± 2.2 kg/m3
viscosity (358.15 K, x2 = 0.496): 17.78 ± 0.15 mPa·s
mass density (358.15 K, x2 = 0.496): 865 ± 2.2 kg/m3
viscosity (363.15 K, x2 = 0.496): 15.51 ± 0.13 mPa·s
mass density (363.15 K, x2 = 0.496): 862 ± 2.1 kg/m3
